Consider two compounds from ChEMBL document CHEMBL4507276 (2021).

In test [1] the target is Tyrosine-protein kinase receptor UFO (Homo sapiens) (UniProt P30530). The note with it: Compound concentration 1000.0 nM.
Test [2] concerns the target Serine/threonine-protein kinase B-raf (Homo sapiens) (UniProt P15056). The note with it: Compound concentration 1000.0 nM.
The target of test [3] is Death-associated protein kinase 2 (Homo sapiens) (UniProt Q9UIK4). The conditions noted are these: Compound concentration 1000.0 nM.
Death-associated protein kinase 2 (Homo sapiens), sequence (Q9UIK4 whole entry, looked up): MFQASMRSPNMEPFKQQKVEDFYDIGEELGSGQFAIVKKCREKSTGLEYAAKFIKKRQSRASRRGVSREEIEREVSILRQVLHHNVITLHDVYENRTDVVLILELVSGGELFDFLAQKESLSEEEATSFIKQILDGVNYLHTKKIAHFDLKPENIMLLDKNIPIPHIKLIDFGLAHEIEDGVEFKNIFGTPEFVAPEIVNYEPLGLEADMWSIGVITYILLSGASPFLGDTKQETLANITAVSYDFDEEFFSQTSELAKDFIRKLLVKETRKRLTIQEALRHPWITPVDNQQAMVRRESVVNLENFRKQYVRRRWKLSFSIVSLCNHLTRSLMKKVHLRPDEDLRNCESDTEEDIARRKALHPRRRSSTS
Test [4] has as its target T1, Ephrin type-B receptor 3 (Homo sapiens) (UniProt P54753).
T1 sequence (whole entry): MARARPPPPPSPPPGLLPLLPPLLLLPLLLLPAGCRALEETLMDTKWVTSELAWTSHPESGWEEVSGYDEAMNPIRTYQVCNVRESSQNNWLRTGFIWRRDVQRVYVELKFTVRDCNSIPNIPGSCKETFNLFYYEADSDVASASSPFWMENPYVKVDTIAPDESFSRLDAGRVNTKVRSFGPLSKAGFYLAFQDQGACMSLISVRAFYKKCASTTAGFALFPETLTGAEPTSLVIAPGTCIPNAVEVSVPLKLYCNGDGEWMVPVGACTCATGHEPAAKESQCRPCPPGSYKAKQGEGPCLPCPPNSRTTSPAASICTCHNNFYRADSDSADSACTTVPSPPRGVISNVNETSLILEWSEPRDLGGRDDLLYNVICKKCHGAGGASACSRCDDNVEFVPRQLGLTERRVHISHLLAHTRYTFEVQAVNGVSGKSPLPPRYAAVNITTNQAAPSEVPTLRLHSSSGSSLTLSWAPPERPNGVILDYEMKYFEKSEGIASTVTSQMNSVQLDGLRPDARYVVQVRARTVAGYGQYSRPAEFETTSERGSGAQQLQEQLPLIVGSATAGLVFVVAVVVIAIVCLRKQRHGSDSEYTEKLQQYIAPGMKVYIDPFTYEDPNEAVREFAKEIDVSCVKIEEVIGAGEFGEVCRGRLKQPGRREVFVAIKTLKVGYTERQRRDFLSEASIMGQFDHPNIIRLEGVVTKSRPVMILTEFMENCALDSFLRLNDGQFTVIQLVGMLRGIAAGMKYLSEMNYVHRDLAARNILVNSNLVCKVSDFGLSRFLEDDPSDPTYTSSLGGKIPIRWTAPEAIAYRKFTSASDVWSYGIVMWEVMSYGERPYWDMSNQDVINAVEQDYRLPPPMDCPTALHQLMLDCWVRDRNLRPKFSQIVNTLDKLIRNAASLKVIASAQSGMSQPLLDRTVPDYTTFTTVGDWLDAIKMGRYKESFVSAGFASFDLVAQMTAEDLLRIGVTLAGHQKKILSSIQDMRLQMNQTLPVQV
The note with it: Compound concentration 1000.0 nM.

In test [5] the target is T2, Ephrin type-B receptor 4 (Homo sapiens) (UniProt P54760).
T2 sequence (whole entry): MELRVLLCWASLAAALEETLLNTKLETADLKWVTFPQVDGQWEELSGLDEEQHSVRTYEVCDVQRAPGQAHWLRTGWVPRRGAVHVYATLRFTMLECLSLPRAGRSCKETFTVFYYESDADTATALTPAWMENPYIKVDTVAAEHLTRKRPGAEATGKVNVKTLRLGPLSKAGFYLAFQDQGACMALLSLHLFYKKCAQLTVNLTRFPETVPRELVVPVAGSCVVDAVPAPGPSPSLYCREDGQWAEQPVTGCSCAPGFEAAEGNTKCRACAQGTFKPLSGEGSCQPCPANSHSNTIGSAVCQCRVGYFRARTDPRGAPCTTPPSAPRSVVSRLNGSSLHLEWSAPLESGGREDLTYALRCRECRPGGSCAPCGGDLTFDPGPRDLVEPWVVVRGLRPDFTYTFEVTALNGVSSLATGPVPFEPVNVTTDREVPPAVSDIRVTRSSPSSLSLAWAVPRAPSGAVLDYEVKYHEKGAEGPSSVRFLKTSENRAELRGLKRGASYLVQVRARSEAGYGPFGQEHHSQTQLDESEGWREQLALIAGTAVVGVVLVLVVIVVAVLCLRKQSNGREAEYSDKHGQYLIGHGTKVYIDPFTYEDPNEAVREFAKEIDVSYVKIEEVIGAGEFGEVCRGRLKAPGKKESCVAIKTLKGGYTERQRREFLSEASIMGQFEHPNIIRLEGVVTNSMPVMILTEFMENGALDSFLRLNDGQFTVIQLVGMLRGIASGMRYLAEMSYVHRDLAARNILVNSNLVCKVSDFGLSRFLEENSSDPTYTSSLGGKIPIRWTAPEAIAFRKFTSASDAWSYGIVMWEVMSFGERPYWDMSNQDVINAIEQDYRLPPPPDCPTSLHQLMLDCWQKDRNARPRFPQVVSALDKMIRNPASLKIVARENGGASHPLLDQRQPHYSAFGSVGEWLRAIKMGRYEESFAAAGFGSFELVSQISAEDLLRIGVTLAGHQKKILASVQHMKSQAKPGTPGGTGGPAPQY
The note with it: Compound concentration 1000.0 nM.

Test [6] has as its target Dual specificity mitogen-activated protein kinase kinase 7 (Homo sapiens) (UniProt O14733). The note with it: Compound concentration 1000.0 nM.
Test [7] has as its target Serine/threonine-protein kinase 38-like (Homo sapiens) (UniProt Q9Y2H1). The conditions noted are these: Compound concentration 1000.0 nM.
Test [8] has as its target T3, Mitogen-activated protein kinase 13 (Homo sapiens) (UniProt O15264).
T3 sequence (whole entry): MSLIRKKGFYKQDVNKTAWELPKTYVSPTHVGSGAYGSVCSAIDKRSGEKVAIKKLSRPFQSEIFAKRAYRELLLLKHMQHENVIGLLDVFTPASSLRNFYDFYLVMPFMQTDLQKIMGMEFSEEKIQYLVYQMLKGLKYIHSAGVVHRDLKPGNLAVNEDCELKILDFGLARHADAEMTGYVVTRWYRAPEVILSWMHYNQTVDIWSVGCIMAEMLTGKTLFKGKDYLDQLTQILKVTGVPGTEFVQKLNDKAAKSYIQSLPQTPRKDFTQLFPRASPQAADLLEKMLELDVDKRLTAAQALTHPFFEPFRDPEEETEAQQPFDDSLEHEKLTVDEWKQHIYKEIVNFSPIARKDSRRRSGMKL
The note with it: Compound concentration 1000.0 nM.

Test [9] concerns the target Calcium-dependent protein kinase 1 (Plasmodium falciparum) (UniProt P62344). The conditions noted are these: Compound concentration 1000.0 nM.
The target of test [10] is Serine/threonine-protein kinase pim-2 (Homo sapiens) (UniProt Q9P1W9). The note with it: Compound concentration 1000.0 nM.
Serine/threonine-protein kinase pim-2 (Homo sapiens), sequence (Q9P1W9 whole entry, looked up): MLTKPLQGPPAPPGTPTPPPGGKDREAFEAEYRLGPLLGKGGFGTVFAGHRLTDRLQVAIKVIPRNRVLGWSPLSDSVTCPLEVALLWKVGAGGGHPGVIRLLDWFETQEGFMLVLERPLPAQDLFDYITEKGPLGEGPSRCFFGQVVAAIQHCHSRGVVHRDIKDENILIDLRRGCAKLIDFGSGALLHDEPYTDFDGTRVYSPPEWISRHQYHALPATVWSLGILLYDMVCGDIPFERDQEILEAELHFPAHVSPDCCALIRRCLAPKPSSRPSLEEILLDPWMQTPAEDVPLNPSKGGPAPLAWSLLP
Test [11] has as its target Sodium-dependent dopamine transporter (Homo sapiens, UniProt Q01959). The conditions noted are these: Compound concentration 10.0 uM.

Tyrosine-protein kinase receptor UFO (Homo sapiens), sequence (P30530 whole entry): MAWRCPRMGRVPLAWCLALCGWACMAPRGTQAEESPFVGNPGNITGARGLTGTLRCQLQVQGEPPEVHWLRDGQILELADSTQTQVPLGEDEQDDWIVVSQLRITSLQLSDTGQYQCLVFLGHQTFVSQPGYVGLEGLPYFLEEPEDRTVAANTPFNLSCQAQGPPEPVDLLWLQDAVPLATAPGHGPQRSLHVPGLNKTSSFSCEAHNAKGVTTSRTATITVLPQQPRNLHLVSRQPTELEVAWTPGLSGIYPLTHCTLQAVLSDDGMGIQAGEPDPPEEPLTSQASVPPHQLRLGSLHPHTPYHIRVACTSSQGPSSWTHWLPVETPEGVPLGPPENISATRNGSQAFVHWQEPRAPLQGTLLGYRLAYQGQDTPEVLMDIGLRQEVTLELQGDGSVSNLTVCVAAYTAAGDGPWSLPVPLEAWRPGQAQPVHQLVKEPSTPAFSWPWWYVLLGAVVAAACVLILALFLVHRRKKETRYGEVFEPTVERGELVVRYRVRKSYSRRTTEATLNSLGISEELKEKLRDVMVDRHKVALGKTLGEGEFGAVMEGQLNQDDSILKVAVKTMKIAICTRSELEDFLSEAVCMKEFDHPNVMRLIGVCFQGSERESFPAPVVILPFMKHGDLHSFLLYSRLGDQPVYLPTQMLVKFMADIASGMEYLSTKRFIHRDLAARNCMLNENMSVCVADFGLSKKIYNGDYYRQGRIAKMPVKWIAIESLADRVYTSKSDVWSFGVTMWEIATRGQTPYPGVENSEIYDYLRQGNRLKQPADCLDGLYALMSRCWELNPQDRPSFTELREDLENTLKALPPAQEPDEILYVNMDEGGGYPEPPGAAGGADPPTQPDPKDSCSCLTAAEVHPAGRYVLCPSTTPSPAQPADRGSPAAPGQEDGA
Calcium-dependent protein kinase 1 (Plasmodium falciparum), sequence (P62344 2-524 limits assumed): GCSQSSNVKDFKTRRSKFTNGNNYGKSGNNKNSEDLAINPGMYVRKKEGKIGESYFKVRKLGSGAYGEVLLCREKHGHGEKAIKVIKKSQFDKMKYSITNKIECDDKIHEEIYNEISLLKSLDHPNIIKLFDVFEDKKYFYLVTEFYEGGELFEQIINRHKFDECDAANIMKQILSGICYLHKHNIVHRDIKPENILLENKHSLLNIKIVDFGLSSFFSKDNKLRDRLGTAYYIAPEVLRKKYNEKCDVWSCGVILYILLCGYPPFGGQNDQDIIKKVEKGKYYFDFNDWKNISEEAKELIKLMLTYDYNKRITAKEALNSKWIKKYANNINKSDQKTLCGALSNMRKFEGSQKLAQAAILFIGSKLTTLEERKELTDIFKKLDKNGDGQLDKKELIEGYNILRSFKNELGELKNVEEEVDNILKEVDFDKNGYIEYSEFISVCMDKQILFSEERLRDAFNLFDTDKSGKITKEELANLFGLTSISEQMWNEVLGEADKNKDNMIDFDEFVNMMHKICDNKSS
Serine/threonine-protein kinase B-raf (Homo sapiens), sequence (P15056 whole entry): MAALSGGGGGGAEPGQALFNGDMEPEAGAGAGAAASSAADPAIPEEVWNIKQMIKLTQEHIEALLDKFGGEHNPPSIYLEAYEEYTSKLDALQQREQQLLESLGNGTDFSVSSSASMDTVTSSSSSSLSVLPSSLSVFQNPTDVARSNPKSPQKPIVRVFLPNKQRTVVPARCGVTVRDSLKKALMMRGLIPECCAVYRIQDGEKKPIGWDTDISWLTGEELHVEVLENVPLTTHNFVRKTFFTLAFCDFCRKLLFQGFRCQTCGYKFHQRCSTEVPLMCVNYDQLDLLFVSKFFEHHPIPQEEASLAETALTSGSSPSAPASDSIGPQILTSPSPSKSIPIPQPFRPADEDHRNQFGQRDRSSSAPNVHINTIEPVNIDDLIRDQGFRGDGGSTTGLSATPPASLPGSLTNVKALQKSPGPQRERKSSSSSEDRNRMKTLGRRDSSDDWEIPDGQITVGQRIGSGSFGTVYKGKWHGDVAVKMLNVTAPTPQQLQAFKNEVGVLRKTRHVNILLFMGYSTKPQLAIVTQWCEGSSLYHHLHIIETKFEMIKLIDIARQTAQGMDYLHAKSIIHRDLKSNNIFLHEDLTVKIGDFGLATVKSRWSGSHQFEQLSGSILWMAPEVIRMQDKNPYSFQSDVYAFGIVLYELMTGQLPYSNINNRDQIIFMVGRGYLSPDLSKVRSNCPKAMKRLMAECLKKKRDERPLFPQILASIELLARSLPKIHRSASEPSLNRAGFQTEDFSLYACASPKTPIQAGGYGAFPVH
Serine/threonine-protein kinase 38-like (Homo sapiens), sequence (Q9Y2H1 2-464 limits assumed): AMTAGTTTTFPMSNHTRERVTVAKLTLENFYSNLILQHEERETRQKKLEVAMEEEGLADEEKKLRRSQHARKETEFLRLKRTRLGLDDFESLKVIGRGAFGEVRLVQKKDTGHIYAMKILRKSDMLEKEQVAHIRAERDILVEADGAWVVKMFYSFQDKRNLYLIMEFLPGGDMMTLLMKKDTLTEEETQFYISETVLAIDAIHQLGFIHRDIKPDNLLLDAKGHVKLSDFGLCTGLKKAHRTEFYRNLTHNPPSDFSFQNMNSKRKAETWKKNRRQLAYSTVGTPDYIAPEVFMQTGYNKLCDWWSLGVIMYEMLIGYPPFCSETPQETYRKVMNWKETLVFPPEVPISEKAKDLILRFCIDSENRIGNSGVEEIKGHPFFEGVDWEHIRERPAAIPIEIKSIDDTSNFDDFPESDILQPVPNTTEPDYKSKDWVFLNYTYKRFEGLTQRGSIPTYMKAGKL
Dual specificity mitogen-activated protein kinase kinase 7 (Homo sapiens), sequence (O14733 whole entry): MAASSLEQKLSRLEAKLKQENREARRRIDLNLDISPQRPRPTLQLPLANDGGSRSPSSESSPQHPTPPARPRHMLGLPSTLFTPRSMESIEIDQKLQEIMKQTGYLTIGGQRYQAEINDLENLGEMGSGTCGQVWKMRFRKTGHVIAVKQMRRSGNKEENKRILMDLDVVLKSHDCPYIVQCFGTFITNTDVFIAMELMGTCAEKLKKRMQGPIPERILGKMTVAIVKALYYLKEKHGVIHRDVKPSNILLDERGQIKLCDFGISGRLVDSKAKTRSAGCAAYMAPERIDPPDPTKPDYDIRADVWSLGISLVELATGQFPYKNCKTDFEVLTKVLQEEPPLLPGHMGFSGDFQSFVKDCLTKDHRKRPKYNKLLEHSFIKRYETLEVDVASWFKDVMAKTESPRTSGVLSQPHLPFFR
Sodium-dependent dopamine transporter, sequence (Q01959 whole entry): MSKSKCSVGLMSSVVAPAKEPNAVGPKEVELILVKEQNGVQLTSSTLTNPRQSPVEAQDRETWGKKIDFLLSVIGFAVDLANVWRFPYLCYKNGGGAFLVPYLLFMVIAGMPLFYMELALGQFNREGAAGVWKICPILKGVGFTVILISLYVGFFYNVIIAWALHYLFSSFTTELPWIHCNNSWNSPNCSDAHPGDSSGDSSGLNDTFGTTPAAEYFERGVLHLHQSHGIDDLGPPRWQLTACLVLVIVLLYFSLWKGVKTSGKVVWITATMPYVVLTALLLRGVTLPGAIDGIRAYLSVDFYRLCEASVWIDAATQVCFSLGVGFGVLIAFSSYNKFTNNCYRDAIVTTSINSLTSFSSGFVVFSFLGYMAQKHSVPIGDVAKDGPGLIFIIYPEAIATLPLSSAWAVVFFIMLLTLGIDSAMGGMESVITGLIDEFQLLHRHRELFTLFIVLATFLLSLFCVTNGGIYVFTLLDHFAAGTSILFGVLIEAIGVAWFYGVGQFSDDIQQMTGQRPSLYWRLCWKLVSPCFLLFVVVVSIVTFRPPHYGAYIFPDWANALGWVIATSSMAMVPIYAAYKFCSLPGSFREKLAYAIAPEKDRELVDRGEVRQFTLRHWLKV

Consider `CN(C)C(=O)Cn1cc(-c2nc(C3(c4ccc(-c5cnc(N)nc5)cc4)CC3)no2)cn1` [BI 0153], for which the residual activity in test [1] was 93%; in test [2] it was 88%; in test [3] it was 86%; in test [4], 95%; in test [5], 100%; in test [6] it was 87%. The residual activity in [7] was 81%; in [8], 91%; in test [9], 82%; in test [10] it was 100%. In addition, in test [11], the inhibition was 52.4%.
Take `CN(C)C(=O)Cn1cc(-c2nc([C@@](C)(c3ccc(-c4cnc(N)nc4)cc3)C3CC3)no2)cn1` [BI 665915]: the residual activity in [1] is 98%; in [2], 82%; in test [3], 100%; in [4] it was 100%; in [5], 100%; in test [6], 94%. The residual activity in [7] was 91%; in test [8] it was 93%; in [9], 58%; in [10] it was 100%. In addition, the inhibition in [11] was 60.7%.

Usually inhibition stands for the drop in the measured response relative to a control, in per cent.
